Experimental data published in BindingDB's records for doi:10.7270/Q2B27SRF (Broad Institute, 2010).
Structures can show the parent of a compound that is named as a salt.

Biological target: Serine/threonine-protein kinase 33 (Homo sapiens, UniProt Q9BYT3)
Test: STK33 kinase inhibitors, dose response, biochemical, luminescence, cell-free, retest (AID 2821)

Sequence of Serine/threonine-protein kinase 33 (Q9BYT3 whole entry): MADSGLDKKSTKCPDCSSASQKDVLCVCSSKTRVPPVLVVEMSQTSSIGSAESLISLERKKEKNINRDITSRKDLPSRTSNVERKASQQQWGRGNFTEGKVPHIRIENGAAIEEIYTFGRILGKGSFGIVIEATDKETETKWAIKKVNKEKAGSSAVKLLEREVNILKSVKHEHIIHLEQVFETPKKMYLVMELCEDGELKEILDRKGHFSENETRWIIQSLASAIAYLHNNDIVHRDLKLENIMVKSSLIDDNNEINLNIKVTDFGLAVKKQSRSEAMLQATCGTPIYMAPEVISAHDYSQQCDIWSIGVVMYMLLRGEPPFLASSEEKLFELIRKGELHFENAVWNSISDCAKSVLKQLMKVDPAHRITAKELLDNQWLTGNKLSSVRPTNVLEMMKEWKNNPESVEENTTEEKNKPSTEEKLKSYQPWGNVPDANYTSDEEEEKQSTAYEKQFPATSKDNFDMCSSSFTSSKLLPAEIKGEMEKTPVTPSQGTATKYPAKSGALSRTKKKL

| EC50 | Compound |
| --- | --- |
| > 120 µM | S=C(Nc1cccnc1)Nc1cccc2cnccc12 [SMR000348842] |
| 9.41 µM | CCc1ccc(NC(S)=Nc2ccc3c[nH]nc3c2)cc1 [SMR000261301] |
| 6.82 µM | CCOc1ccccc1C(=O)Nc1cc(Cl)ccc1O [N-(5-chloranyl-2-oxidanyl-phenyl)-2-ethoxy-benzamide] |
| 1.24 µM | NC(=O)NN=Cc1c(O)ccc2oc3c(c12)CCCC3 [SMR000414386] |
| 29.1 µM | COc1ccc(C(=O)ON=C(C)c2cccs2)cc1 [MLS000544771] |
| 0.618 µM | C=CC(=O)Nc1ccc(CN2C(=O)N(c3c(Cl)c(OC)cc(OC)c3Cl)Cc3cnc(NCCCCN(CC)CC)nc32)cc1 [N-[4-[[3-[2,6-bis(chloranyl)-3,5-dimethoxy-phenyl]-7-[4-(diethylamino)butylamino]-2-oxidanylidene-4H-pyrimido[4,5-d]pyrimidin-1-yl]methyl]phenyl]prop-2-enamide] |
| 9.54 µM | CCC(C(=O)Nc1ccc2[nH]ncc2c1)c1ccccc1 (stereo unspecified) [MLS001001015] |
| > 120 µM | CN1CCCC1CCNc1ccc2oc3ccccc3c(=O)c2c1 (stereo unspecified) [MLS001249997] |
| 8.09 µM | CS(=O)(=O)Nc1ccc(-c2cc(C=C3SC(N)=NC3=O)c[nH]c2=O)cc1 [N-[4-[5-[(Z)-(2-azanyl-4-oxidanylidene-1,3-thiazol-5-ylidene)methyl]-2-oxidanylidene-1H-pyridin-3-yl]phenyl]methanesulfonamide] |
| 2.49 µM | CC[C@H](CO)Nc1nc(Nc2cccc(Cl)c2)c2ncn(C(C)C)c2n1 [(R)-2-(6-(3-chlorophenylamino)-9-isopropyl-9H-purin-2-ylamino)butan-1-ol] |
| > 120 µM | CCn1c2ccc(C(C)N=O)cc2c2cc(C(C)N=O)ccc21 (stereo unspecified) [N-[1-[9-ethyl-6-(C-methyl-N-oxidanyl-carbonimidoyl)carbazol-3-yl]ethylidene]hydroxylamine] |
| 1.86 µM | COC(=O)c1ccc(COc2ccccc2/C=C/C(=O)c2ccc(OCC(=O)O)cc2)cc1 [SMR000590970] |
| 20.2 µM | CN1CCN(c2ccc(NC(=O)c3ccc(-c4cccc([N+](=O)[O-])c4)o3)cc2)CC1 [N-[4-(4-methylpiperazin-1-yl)phenyl]-5-(3-nitrophenyl)furan-2-carboxamide] |
| 1.75 µM | COc1cc(C=CC(=O)CC(=O)C=Cc2ccc(O)cc2)ccc1O [demethoxycurcumin] |
| 68.2 µM | COc1ccc(C(=O)ON=C(C)c2ccccc2)cc1 [SMR000159704] |
| > 120 µM | CCOc1ccc(Nc2nc(N)c3ccccc3n2)cc1 [N2-(4-ethoxyphenyl)quinazoline-2,4-diamine;hydrochloride] |
| 22.5 µM | Cc1cccc(-c2nc3ccccc3c3nncn23)c1 [SMR000106108] |
| 44.9 µM | N#C/C(=C\c1ccc(O)c(O)c1)C(=O)c1ccc(O)c(O)c1 [(2E)-3-(3,4-dihydroxyphenyl)-2-[(3,4-dihydroxyphenyl)carbonyl]prop-2-enenitrile] |
| 17 µM | Cc1sc2ncnc(N=NCc3cccc(O)c3)c2c1C [SMR000219295] |
| 10.7 µM | O=C(O)Cc1ccc(N=Cc2c(O)ccc3ccccc23)cc1 [(4-{[(2-hydroxy-1-naphthyl)methylene]amino}phenyl)acetic acid] |
| 7.05 µM | Nc1nc(N)nc(-c2cc(O)ccc2O)n1 [(6E)-6-(4,6-diamino-1H-1,3,5-triazin-2-ylidene)-4-hydroxycyclohexa-2,4-dien-1-one] |
| > 120 µM | CCCCCCCCCCOC(=O)Cn1c(COc2ccc(Cl)cc2)[n+](C)c2ccccc21 [decyl 2-[2-[(4-chloranylphenoxy)methyl]-3-methyl-benzimidazol-3-ium-1-yl]ethanoate;chloride] |
| 10.4 µM | CC1CCN(C2=NC(=O)/C(=C/c3ccc(O)cc3)S2)CC1 [MLS001205076] |
| 30.8 µM | c1coc(C2Nc3ccccc3-c3nc4ccccc4n32)c1 (stereo unspecified) [MLS000055458] |
| > 120 µM | N=c1c2c(-c3ccccc3)c(-c3ccccc3)oc2ncn1Cc1ccco1 [SMR000176070] |
| > 120 µM | COc1cc(C2c3sc(=O)[nH]c3Sc3c2c(O)n(-c2ccc(C)cc2)c3O)ccc1O (stereo unspecified) [SMR000414898] |
| > 120 µM | COc1ccc(CNc2nc3ccccc3s2)cc1OC [SMR000523783] |
| 9.71 µM | c1nc(N2CCCC2)c2[nH]cnc2n1 [6-(1-pyrrolidinyl)-7H-purine] |
| 3.46 µM | O=S(=O)(O)c1cccc(N=Nc2c(O)ccc3ccccc23)c1 [SMR000273743] |

Further lines, the molecule ahead of its results:

| Compound | EC50 |
| --- | --- |
| Cc1cccc(N2CCN(CCCNC(=O)c3ccc(NC(=O)C4=CSCCO4)cc3)CC2C)c1 (stereo unspecified) | 7.97 µM |
| Fc1ccc(-c2c[nH]cn2)cc1 [4-(4-fluorophenyl)-1H-imidazole] | > 120 µM |
| O=C(CCc1ccc(O)cc1)c1c(O)cc(O)cc1O [3-(4-hydroxyphenyl)-1-(2,4,6-trihydroxyphenyl)propan-1-one] | 21.4 µM |
| O=C(O)c1ccc(NC(=O)c2cccc(C(=O)Nc3ccc(C(=O)O)cc3)n2)cc1 [4-[[6-[(4-carboxyphenyl)carbamoyl]pyridin-2-yl]carbonylamino]benzoic acid] | 28.3 µM |
| Nc1c(C(=O)O)ccc2c1C(=O)c1ccccc1C2=O | 22.2 µM |
| CC(N=Nc1ccnc2cc(Cl)ccc12)c1ccc(O)cc1 (stereo unspecified) [4-[1-[(7-chloro-4-quinolinyl)hydrazo]ethylidene]-1-cyclohexa-2,5-dienone] | 22.9 µM |
| CN1CCCC1CCNc1ccc2sc3ccccc3c(=O)c2c1 (stereo unspecified) [2-[2-(1-methyl-2-pyrrolidinyl)ethylamino]-9-thioxanthenone] | 16.6 µM |
| COC1(OC)N=C(N)C2(C#N)C(c3ccc4c(c3)OCO4)C12C#N (stereo unspecified) | > 120 µM |
| COc1cc(C=NNC2=c3ccccc3=NC2=O)ccc1O | 9.23 µM |
| CCN1C=CC(=C2C(=O)c3ccccc3C2=O)C=C1 [2-(1-ethyl-4-pyridinylidene)indene-1,3-dione] | 14 µM |
| COc1ccc2c(c1)C(=Cc1cnc[nH]1)C(=O)N2 | 7.73 µM |
| CCn1c(C)nc2cc(-c3nc4n(n3)Cc3ccccc3-4)ccc21 [2-(1-ethyl-2-methyl-5-benzimidazolyl)-5H-[1,2,4]triazolo[5,1-a]isoindole] | 11 µM |
| Cc1cc(N2C(=O)c3ccc(C(=O)Nc4ccc(O)cc4C(=O)O)cc3C2=O)no1 [5-hydroxy-2-[[[2-(5-methyl-3-isoxazolyl)-1,3-dioxo-5-isoindolyl]-oxomethyl]amino]benzoic acid] | 24 µM |
| c1ccc2c3c([nH]c2c1)-c1n[nH]cc1CC3 [3,4,16-triazatetracyclo[7.7.0.0^{2,6}.0^{10,15}]hexadeca-1(9),2,5,10,12,14-hexaene] | 61 µM |
| COc1ccc(C(=O)ON=C(N)c2ccccc2)cc1 | > 120 µM |
| N#C/C(=C/C=C/c1ccccc1)C(=O)Nc1ccccc1 [2-cyano-N,5-diphenyl-2,4-pentadienamide] | > 120 µM |
| O=C(Nc1ccccc1-c1ccccc1)c1ccc(Br)o1 [5-bromo-N-(2-phenylphenyl)furan-2-carboxamide] | 10.8 µM |
| CCN1C(=O)CC(c2ccccc2)N(C2CCCC2)c2nc(Nc3ccc(C(=O)NC4CCN(C)CC4)cc3OC)ncc21 (stereo unspecified) | 7.93 µM |
| Oc1cc(O)cc(/C=C/c2ccc(O)c(O)c2)c1 | 12.8 µM |
| O=C(c1ccc2c3n(nc2c1)-c1ccccc1CO3)N1CCCCC1 [5H-indazolo[2,3-a][3,1]benzoxazin-9-yl(piperidin-1-yl)methanone] | > 120 µM |
| Cc1ccc(NC(=S)Nc2ccc3cn[nH]c3c2)c(C)c1 | > 120 µM |
| CCOc1ccc(-c2ccc(SC)nn2)cc1 [3-(4-ethoxyphenyl)-6-(methylthio)pyridazine] | > 120 µM |
